Assay results taken from ChEMBL document CHEMBL1201862, “PubChem BioAssay data set” (2004).
Calls of active or inactive are those of the source.

What was measured:
HEK293 = experiment: EBV LMP1 TES2 canonical NF-kB signalling blockers – cell-based, HEK293, luciferase, cherry-pick, dose response (AID 588343); type: functional; conditions: Homo sapiens
[1] = target: T1, Replicative DNA helicase DnaB (Mycobacterium tuberculosis, UniProt P9WMR3); experiment: DnaB intein splicing inhibitors, dose response, biochemical, cell-free fluorescence (AID 449749); type: functional
T1 sequence (P9WMR3 whole entry): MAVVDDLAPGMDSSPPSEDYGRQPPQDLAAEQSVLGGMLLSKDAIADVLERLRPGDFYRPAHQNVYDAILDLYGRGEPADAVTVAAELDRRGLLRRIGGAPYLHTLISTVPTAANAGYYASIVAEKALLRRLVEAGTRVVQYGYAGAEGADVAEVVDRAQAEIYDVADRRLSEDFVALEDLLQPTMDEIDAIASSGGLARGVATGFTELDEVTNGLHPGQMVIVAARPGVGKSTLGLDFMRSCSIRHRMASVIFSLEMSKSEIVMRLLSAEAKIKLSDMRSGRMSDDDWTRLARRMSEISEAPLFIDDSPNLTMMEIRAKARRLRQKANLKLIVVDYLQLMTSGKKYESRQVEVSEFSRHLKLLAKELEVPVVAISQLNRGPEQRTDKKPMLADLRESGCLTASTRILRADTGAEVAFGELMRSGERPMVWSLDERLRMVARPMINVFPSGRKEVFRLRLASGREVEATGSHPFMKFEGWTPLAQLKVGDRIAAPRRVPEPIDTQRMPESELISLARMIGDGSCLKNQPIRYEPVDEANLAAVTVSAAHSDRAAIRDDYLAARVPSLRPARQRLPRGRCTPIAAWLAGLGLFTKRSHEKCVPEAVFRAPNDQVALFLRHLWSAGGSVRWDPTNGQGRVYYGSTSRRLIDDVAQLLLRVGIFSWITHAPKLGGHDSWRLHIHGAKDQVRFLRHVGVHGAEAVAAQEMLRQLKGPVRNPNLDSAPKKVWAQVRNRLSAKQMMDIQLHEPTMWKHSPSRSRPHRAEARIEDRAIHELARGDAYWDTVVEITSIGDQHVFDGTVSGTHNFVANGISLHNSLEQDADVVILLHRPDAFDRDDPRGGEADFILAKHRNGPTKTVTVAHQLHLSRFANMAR

Protein RecA = target: T2, Protein RecA (Mycobacterium tuberculosis, UniProt P9WHJ3); experiment: Fluorescence Cell-Free Homogeneous Dose Retest to Identify Inhibitors of RecA-Intein Splicing Activity. [Related pubchem assays (depositor defined):AID2097, AID2223, AID489010, AID492950]; type: functional
T2 sequence (P9WHJ3 whole entry): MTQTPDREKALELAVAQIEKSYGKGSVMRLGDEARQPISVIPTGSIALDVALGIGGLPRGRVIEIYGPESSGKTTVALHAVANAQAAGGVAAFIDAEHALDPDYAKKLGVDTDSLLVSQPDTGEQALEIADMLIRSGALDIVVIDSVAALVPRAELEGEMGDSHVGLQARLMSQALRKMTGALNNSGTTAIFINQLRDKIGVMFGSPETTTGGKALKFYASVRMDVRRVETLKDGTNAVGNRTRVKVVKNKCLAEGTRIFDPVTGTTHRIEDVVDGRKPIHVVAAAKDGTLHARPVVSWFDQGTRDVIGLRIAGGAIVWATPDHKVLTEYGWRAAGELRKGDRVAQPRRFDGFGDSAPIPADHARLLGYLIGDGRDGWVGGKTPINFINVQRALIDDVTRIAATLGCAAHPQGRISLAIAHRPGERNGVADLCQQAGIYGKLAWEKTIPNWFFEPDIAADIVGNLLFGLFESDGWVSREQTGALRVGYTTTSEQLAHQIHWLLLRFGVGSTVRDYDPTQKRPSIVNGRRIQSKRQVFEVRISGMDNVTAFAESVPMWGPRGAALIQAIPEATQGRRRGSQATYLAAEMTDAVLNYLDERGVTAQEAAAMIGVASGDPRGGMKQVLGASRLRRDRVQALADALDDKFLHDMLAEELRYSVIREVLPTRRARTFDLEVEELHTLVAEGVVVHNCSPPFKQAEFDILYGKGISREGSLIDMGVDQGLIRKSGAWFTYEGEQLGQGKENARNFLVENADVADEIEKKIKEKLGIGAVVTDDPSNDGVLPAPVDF

Escherichia coli = experiment: microbe, parasite or virus in culture
Cysteine protease ATG4B = target: T3, Cysteine protease ATG4B (Homo sapiens, UniProt Q9Y4P1); type: functional;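 also: Fluorescence-based dose-response confirmation assay measuring inhibition of ATG4B activity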
T3 sequence (Q9Y4P1 whole entry): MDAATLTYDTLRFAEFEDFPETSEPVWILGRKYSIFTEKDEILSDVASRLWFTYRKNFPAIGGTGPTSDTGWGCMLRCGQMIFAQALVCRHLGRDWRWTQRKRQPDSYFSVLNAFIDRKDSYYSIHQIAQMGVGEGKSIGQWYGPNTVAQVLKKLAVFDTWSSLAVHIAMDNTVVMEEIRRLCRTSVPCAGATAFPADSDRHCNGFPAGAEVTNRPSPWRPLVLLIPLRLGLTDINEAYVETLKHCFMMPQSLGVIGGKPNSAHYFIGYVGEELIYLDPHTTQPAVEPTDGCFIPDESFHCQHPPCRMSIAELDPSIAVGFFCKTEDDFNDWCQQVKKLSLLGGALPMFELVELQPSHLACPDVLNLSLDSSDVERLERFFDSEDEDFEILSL

[2] = target: T4, Neuropeptide Y receptor type 1 (Homo sapiens, UniProt P25929); type: functional;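 also: HEK293 cells with a CNG channel challenged with NPY then isoproterenol; potency as antagonist that reverses NPY suppression of cAMP signal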
T4 sequence (P25929 whole entry): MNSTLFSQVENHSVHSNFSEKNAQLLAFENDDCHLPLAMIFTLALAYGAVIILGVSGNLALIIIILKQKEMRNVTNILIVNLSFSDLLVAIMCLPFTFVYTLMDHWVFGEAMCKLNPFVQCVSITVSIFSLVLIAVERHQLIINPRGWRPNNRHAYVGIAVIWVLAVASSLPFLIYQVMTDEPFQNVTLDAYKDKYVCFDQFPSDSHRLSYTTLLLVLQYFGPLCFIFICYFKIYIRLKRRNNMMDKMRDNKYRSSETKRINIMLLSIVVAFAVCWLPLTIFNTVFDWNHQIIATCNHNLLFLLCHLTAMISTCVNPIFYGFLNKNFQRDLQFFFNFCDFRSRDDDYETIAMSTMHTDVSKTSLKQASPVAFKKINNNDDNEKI

[3] = target: T5, Neuropeptide Y receptor type 2 (Homo sapiens, UniProt P49146); type: functional, cell-based;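 also: HEK293 cells expressing the receptor and a CNG channel; stimulus was NPY near EC95 followed by isoproterenol to raise cAMP; antagonist potency measured as restoring cAMP signal that NPY suppresses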
T5 sequence (P49146 whole entry): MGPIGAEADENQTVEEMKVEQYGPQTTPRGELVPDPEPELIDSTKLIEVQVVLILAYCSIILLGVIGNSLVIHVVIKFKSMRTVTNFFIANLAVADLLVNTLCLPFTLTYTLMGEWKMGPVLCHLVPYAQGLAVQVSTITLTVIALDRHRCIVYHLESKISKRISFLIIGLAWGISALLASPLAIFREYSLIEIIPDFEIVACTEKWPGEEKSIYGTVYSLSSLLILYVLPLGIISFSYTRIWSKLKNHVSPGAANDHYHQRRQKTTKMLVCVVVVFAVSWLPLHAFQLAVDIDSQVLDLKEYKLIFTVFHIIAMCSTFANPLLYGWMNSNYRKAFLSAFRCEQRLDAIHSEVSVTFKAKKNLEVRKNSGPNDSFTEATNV

Phospholipase A2 = Phospholipase A2 (Homo sapiens, UniProt P04054); type: functional;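 also: confirmatory dose-response counterscreen on phospholipase A2, testing hits that came from an ultra-high-throughput screen for ATG4B inhibitors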
[4] = target: T6, RNA-binding protein pos-1 (Caenorhabditis elegans, UniProt G5EF15); experiment: disruptors of C. elegans POS-1 RNA interaction – biochemical, fluorescence polarization, dose response (AID 1964);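 also: purified POS-1 fused to maltose binding protein made in E. coli; potency of compounds blocking POS-1 binding to fluorescent RNA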
T6 sequence (G5EF15 whole entry): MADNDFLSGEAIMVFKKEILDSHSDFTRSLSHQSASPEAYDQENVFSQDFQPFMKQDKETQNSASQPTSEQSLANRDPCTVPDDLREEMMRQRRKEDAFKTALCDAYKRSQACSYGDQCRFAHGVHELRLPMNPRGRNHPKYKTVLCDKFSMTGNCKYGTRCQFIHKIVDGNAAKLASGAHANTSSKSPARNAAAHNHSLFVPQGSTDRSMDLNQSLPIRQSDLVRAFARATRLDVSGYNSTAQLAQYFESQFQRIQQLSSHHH

[5] = target: T7, Histone-lysine N-methyltransferase NSD2 (Homo sapiens, UniProt O96028); type: biochemical
T7 sequence (O96028 whole entry): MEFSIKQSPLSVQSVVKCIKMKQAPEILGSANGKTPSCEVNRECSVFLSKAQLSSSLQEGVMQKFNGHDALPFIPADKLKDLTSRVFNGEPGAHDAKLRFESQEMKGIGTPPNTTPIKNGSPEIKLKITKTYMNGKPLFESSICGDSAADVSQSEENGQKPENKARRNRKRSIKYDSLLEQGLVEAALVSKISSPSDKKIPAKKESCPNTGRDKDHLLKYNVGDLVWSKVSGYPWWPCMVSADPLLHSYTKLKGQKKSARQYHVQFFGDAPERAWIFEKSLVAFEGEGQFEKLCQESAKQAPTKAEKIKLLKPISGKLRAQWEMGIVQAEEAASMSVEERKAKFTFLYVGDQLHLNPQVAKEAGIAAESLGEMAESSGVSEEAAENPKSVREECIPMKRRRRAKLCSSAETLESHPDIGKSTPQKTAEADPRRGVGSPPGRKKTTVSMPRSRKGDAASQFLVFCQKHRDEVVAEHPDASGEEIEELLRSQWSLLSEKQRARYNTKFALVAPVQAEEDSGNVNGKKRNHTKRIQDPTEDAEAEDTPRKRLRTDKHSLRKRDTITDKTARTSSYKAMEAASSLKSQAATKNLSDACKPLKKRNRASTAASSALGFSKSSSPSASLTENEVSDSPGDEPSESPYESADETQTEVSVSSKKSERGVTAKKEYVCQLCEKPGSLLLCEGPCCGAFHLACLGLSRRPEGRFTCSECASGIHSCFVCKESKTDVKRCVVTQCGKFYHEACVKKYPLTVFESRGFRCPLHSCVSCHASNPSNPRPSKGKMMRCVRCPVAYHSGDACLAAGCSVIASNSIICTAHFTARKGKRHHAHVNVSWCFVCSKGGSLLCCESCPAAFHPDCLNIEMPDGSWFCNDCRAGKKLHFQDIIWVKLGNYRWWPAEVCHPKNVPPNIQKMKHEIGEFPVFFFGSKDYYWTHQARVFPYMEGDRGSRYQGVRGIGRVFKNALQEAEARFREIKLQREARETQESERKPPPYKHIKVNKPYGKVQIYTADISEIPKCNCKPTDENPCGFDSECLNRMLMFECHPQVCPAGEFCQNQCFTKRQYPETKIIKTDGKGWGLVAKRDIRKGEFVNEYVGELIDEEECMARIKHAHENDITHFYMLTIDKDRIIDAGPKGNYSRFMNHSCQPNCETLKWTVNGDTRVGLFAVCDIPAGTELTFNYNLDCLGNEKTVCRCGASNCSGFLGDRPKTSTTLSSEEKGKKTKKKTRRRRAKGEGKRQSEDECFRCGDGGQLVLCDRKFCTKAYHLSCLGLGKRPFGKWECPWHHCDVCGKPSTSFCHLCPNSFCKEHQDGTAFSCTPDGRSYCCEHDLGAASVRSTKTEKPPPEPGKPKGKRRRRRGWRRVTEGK

[6] = target: T8, Carboxy-terminal domain RNA polymerase II polypeptide A small phosphatase 1 (Homo sapiens, UniProt Q9GZU7); experiment: CTDSP1 inhibitors, concentration-response, biochemical, absorbance readout, ultra-high-throughput screen actives (AID 540297); type: functional
T8 sequence (Q9GZU7 whole entry): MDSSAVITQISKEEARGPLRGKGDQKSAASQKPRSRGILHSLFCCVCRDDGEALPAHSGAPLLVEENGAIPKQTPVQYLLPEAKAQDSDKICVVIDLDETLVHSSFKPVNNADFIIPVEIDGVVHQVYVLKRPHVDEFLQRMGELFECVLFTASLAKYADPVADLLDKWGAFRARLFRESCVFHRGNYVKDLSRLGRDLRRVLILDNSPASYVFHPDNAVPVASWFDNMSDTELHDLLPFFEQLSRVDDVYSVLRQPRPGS

[7] = target: T9, Zinc finger protein mex-5 (Caenorhabditis elegans, UniProt Q9XUB2); experiment: potency of MEX-5 RNA-binding blockers – biochemical, C. elegans, fluorescence polarization, dose response (AID 1960)
T9 sequence (Q9XUB2 whole entry): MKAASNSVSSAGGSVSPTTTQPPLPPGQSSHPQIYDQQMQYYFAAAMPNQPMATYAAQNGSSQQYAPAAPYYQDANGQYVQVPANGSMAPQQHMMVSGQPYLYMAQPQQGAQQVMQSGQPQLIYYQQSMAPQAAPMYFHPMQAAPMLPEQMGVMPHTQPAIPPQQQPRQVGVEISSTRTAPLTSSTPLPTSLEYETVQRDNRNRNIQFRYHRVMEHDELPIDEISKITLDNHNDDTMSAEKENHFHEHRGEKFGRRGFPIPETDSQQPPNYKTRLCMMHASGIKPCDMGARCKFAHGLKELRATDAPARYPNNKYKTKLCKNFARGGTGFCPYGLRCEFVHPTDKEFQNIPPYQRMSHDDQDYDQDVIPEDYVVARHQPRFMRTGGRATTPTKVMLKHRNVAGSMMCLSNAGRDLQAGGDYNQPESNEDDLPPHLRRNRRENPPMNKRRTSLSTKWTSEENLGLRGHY

Phospholipase A2, sequence (P04054 whole entry, the tested form may be a part): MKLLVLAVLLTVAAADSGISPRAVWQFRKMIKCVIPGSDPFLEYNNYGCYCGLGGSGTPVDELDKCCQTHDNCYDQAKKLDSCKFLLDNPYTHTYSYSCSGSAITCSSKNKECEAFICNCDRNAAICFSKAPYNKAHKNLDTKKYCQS

| Compound | AC50 (HEK293) | AC50 (Escherichia coli) | IC50 (Cysteine protease ATG4B) | IC50 (Phospholipase A2) | further results |
| --- | --- | --- | --- | --- | --- |
| COc1ccc(-n2c(C)c([N+](=O)[O-])c3ccc(O)c(CN(C)C)c32)cc1 | 2.53 µM (active) | – | – | – | – |
| O=C(CSc1ncnc2c1nnn2Cc1ccccc1F)NCC1CCCO1 (stereo unspecified) | – | 58.3 µM (active) | – | – | AC50 [1]: 15 µM (active); EC50 (Protein RecA): 16.5 µM (active) |
| CC(Sc1ccc(Cl)cc1)C(=O)Nc1ccccc1-c1ccccc1 (stereo unspecified) | – | – | 49.7 µM (inactive) | 4.74 µM (active) | IC50 [2]: 10.3 µM (not active); IC50 [3]: 4.77 µM (active) |
| O=C(NCc1ccccc1)c1cccc(COc2ccc3c(c2)CCC3)c1 | 4.83 µM (active) | – | – | – | – |
| CCOc1cccc(=O)c2c(C)n(-c3ccc(C(=O)O)cc3)c(C)c12 | – | > 150 µM (inactive) | – | – | EC50 [4]: 41.3 µM (active); AC50 [5]: 17.2 µM (active); IC50 [6]: 4.54 µM (active); EC50 [7]: 29.6 µM (active) |
| COc1cc(OC)cc(-c2nc3ccccc3c(=O)n2OC(=O)c2ccccc2C)c1 | – | – | 21.4 µM (inactive) | 7.51 µM (active) | – |
